Holding throughout (format): cell-based, rat
The subject of one test is VEGFR3. Put plainly: Whole cell ELISA for VEGFR3. The conditions noted are these: addition of ligand, 24 hours. On the procedure:
(§1) ELISA was performed using whole cells to quantify relative levels of kinase activity. NBT-II cells were grown until confluence in 75 cm^2 flasks. Each flask was washed with 20 ml PBS and treated with 3 ml trypsin-EDTA at 37° C. for 3-5 minutes, until cells detached. Cells were centrifuged for 3 minutes at 195×g. The supernatant was aspirated, and the cells were resuspended in 10 ml media. The cell density was measured using an electronic cell counter, and the suspension was diluted to 50,000 cells/ml. 100 mm dishes were supplemented with 10 ml cell suspension per dish. After a 24 hour incubation, the media was aspirated, the dishes washed with serum free media, and the cells supplemented with media containing 0.1% FBS. After a 24 hour incubation, dishes were treated with PBS, 10 μg/ml heparin or 10 μg/ml DS DT. Subsequently, cells were treated with 10 ng/ml FGF7, 10 ng/ml VEGF or both. Cells were incubated for 30 minutes (for Erk1, Erk2, phosphor-Erk1/2, Mek1, Mek2, phospho-Mek1/2, Akt1/2 and phospho-Akt1/2/3) or 24 hours (for VEGF, VEGF-C and VEGF-D). […] Total protein concentration was determined by Bradford assay. […] The reaction was quenched with 3 M sulfuric acid, and the plates were analyzed using a UV plate reader at 450 nm. Data were quantified by comparing to a standardized curve with varying concentrations of protein from untreated cells.

The next test concerns VEGF-C. Put plainly: Whole cell ELISA for VEGF-C. On the procedure: (§2) ELISA was performed using whole cells to quantify relative levels of kinase activity. NBT-II cells were grown until confluence in 75 cm^2 flasks. Each flask was washed with 20 ml PBS and treated with 3 ml trypsin-EDTA at 37° C. for 3-5 minutes, until cells detached. Cells were centrifuged for 3 minutes at 195×g. The supernatant was aspirated, and the cells were resuspended in 10 ml media. The cell density was measured using an electronic cell counter, and the suspension was diluted to 50,000 cells/ml. 100 mm dishes were supplemented with 10 ml cell suspension per dish. After a 24 hour incubation, the media was aspirated, the dishes washed with serum free media, and the cells supplemented with media containing 0.1% FBS. After a 24 hour incubation, dishes were treated with PBS, 10 μg/ml heparin or 10 μg/ml DS DT. […] Cells were incubated for 30 minutes (for Erk1, Erk2, phosphor-Erk1/2, Mek1, Mek2, phospho-Mek1/2, Akt1/2 and phospho-Akt1/2/3) or 24 hours (for VEGF, VEGF-C and VEGF-D). Media were aspirated and cells were homogenized per manufacture instructions. Total protein concentration was determined by Bradford assay. […] The reaction was quenched with 3 M sulfuric acid, and the plates were analyzed using a UV plate reader at 450 nm. Data were quantified by comparing to a standardized curve with varying concentrations of protein from untreated cells.

Another test relates to NBT-II cells. Put plainly: Proliferation assay, whole cell number by electronic cell counter. Further details: reduction in whole cell number / reduction in cell number in the presence of FGF7: concentration or dose not given beside the values. Conditions: for percent reduction in whole cell number ± standard deviation / proliferative effect of ligand in the absence of GAGs / reduction in whole cell number: no GAG; for proliferative effect of ligand in the absence of GAGs: ligand 10 ng/ml; for reduction in whole cell number: ligand alone; for reduction in whole cell number / reduction in cell number in the presence of FGF7: compared to untreated cells; for reduction in cell number in the presence of FGF7: ligand plus FGF7, no GAG. As to the method:
NBT-II cells were grown until confluence in 75 cm^2 flasks. Each flask was washed with 20 ml PBS and treated with 3 ml trypsin-EDTA at 37° C. for ˜15 minutes until cells completely detached. Cells were centrifuged for 3 minutes at 195×g. The supernatant was aspirated, and the cells were resuspended in 10 ml media. Cell density was measured using an electronic cell counter, and the suspension was diluted to 50,000 cells/ml. The suspension was plated 1 ml/well into 24-well tissue culture plates. After a 24 hour incubation in a 5% CO2, 37° C. humidified incubator, the media was aspirated, the wells were washed with serum free media, and the cells were supplemented with media containing 0.1% FBS and incubated for 24 hours. Cells were sequentially treated with antibodies, GAGs and growth factors as appropriate. Sodium chlorate was added at 50 mM [30]. Antibodies to VEGFR2 or VEGFR3 were added to yield a final dilution of 1:100. All GAGs were initially added over a range of concentrations from 1 ng/ml to 100 μg/ml. Heparin, UDS and DS DT were subsequently added at 1 μg/ml unless otherwise noted. FGF1, FGF2, FGF7 and VEGF were added at 10 ng/ml unless otherwise noted. Cells were then incubated for 72 hours. Wells were then washed twice with PBS and treated with 0.5 ml trypsin-EDTA/well and incubated for 10 minutes at 37° C. Whole cell number was determined using an electronic cell counter.

The test system of the next test is VEGF-D. Put plainly: Whole cell ELISA for VEGF-D. Conditions: FGF2 in the presence of PBS, heparin or DS DT, 24 hours. On the procedure:
as §2
(In general: An ELISA detects its analyte on a solid surface through an enzyme-linked reagent.)

Test [1] has as its system phospho-Akt1/2/3 (Thr 308). Put plainly: Whole cell ELISA for phospho-Akt1/2/3 (Thr 308). Conditions: ligand in the presence of PBS (no GAG). On the procedure:
as §1

The mark [2] stands for this setting: FGF7: ligand (10 ng/ml) or PBS plus FGF7 at 10 ng/ml.

The source of these data is patent publication US20090105463A1, “Compositions of and Methods of Using Oversulfated Glycosaminoglycans” (Massachusetts Institute of Technology, priority 2005, published 2009).

Regarding VEGF, in the test with VEGFR3, the VEGFR3 production entry is “not”. The VEGF-C levels entry in the test on VEGF-C (ligand over 24 hours, regardless of GAG used) is reported as “increased”. Further, the “percent reduction in whole cell number ± standard deviation” value in the test with NBT-II cells (setting [2]) is reported as 30.1 ± 7.0%. The “percent reduction in whole cell number ± standard deviation” value with NBT-II cells (PBS: ligand at 10 ng/ml alone) is recorded as 19.8 ± 4.5%. In addition, in the test on NBT-II cells, the “proliferative effect of ligand in the absence of GAGs” value (shortened to “proliferative effect of ligand”) is recorded as “reduced whole cell number”, the “reduction in whole cell number” value is recorded as 19.8±4.5% and the “reduction in cell number in the presence of FGF7” value (from here on “reduction in cell number”) is 30.1±7.0%.
As to “FGF2: Recombinant human FGF2, gift from Scios”, the “production of VEGF-D” value with VEGF-D is listed as “did not alter”. For the same molecule, the “production of VEGF-C” value in the test on VEGF-C (FGF2 in the presence of PBS, heparin or DS DT, 24 hours) is “did not alter”. The “percent reduction in whole cell number ± standard deviation” value with NBT-II cells (setting [2]) was found to be 30.4 ± 8.7%; with NBT-II cells (PBS: ligand at 10 ng/ml alone), 18.3 ± 5.0%. Moreover, the “proliferative effect of ligand” value in the test on NBT-II cells is on record as “reduced whole cell number”.
As to FGF1: Recombinant FGF1, gift from Amgen, the “percent reduction in whole cell number ± standard deviation” value turned out to be 18.0 ± 2.6% with NBT-II cells (setting [2]) and 5.4 ± 8.3% with NBT-II cells (PBS: ligand at 10 ng/ml alone). In addition, in the test on NBT-II cells, the “proliferative effect of ligand” value is “did not induce significant proliferative effects”.

B1: VEGF-D: vascular endothelial growth factor D, ligand of VEGFR2 and VEGFR3 (protein, UniProt O43915 89-205, looked up)
Vascular endothelial growth …: FAATFYDIETLKVIDEEWQRTQCSPRETCVEVASELGKSTNTFFKPPCVNVFRCGGCCNEESLICMNTSTSYISKQLFEISVPLTSVPELVPVKVANHTGCKCLPTAPRHPYSIIRR
With B1, in the test on NBT-II cells, the “reduction in whole cell number” value turned out to be 16.2±10.8% and the “reduction in cell number” value turned out to be 34.5±1.5%.

B2: FGF7: Recombinant FGF7 from Sigma (protein, UniProt P21781 32-194, looked up)
Fibroblast growth factor 7: CNDMTPEQMATNVNCSSPERHTRSYDYMEGGDIRVRRLFCRTQWYLRIDKRGKVKGTQEMKNNYNIMEIRTVAVGIVAIKGVESEFYLAMNKEGKLYAKKECNEDCNFKELILENHYNTYASAKWTHNGGEMFVALNQKGIPVRGKKTKKEQKTAHFLPMAIT
For the molecule B2, in the test on VEGFR3, the VEGFR3 production result is reported as “increase”. Moreover, in test [1], the “reduction of phosphorylation of Akt1/2/3 (Thr 308)” value is given as about 20%. The “percent reduction in whole cell number ± standard deviation” value in the test on NBT-II cells (setting [2]) is 14.1 ± 2.5%. Besides, the “increase in whole cell number” value in the test on NBT-II cells (FGF7 alone, cells treated with 50 mM sodium chlorate) was found to be 28.4±11.8%. In addition, the “concentration eliciting maximal effect on cell growth” value in the test on NBT-II cells (dose response, no sodium chlorate, effect constant through 100 ng/ml) was 5 ng/mL. For the same molecule, the “concentration at which maximal proliferative effect is achieved” value with NBT-II cells (in the presence of 50 mM sodium chlorate) turned out to be 10 ng/mL. For the same molecule, the “reduction in whole cell number” value in the test on NBT-II cells is reported as 14.1±2.5%.

B3: VEGF-C: vascular endothelial growth factor C, ligand of VEGFR2 and VEGFR3 (protein, UniProt P49767 112-227, looked up)
Vascular endothelial growth …: AHYNTEILKSIDNEWRKTQCMPREVCIDVGKEFGVATNTFFKPPCVSVYRCGGCCNSEGLQCMNTSTSYLSKTLFEITVPLSQGPKPVTISFANHTSCRCMSKLDVYRQVHSIIRR
Take B3: in the test with NBT-II cells, the “reduction in whole cell number” value was 13.4±8.7% and the “reduction in cell number” value is 5.9±5.0%.
